In PMC4117758 (2014):

Columns and labels:
[1] = tested on: Hum21 (DNA, G4) GGGTTAGGGTTAGGGTTAGGG; assay: UV melting at 295 nm; conditions: 50 mM KCl; 10 mM Tris-HCl pH 7.4, 1 mM Na2EDTA, no PEG; 5 μM compound, 5 μM DNA; derived from two Tm
[2] = tested on: AT (DNA, duplex) ATATATATATAT; assay: UV-vis absorption; conditions: 150 mM KCl; 10 mM Tris-HCl pH 7.4, 1 mM Na2EDTA, 400 ml/l PEG 200; 20 μM DNA
[3] = tested on: Hum69 (DNA, G4) GGGTTAGGGTTAGGGTTAGGGTTAGGGTTAGGGTTAGGGTTAGGGTTAGGGTTAGGGTTAGGGTTAGGG; assay: UV melting at 295 nm; conditions: 50 mM KCl; 10 mM Tris-HCl pH 7.4, 1 mM Na2EDTA, no PEG; 5 μM compound, 5 μM DNA; derived from two Tm
[4] = tested on: Hum45 (DNA, G4) GGGTTAGGGTTAGGGTTAGGGTTAGGGTTAGGGTTAGGGTTAGGG; assay: UV melting at 295 nm; conditions: 50 mM KCl; 10 mM Tris-HCl pH 7.4, 1 mM Na2EDTA, no PEG; 5 μM compound, 5 μM DNA; derived from two Tm
[5] = tested on: Hum63 (DNA, G4) GGGTTAGGGTTAGGGTTAGGGTTAGGGTTAGGGTTAGGGTTAGGGTTAGGGTTAGGGTTAGGG; assay: UV-vis absorption titration, Scatchard; conditions: 150 mM KCl; 10 mM Tris-HCl pH 7.4, 1 mM Na2EDTA, 400 ml/l PEG 200; 3 μM compound; n = 0.52
[6] = tested on: M3Q (DNA, G4) GAGGGAGGGAGGGAGAGGGA; assay: UV-vis absorption; conditions: 150 mM KCl; 10 mM Tris-HCl pH 7.4, 1 mM Na2EDTA, 400 ml/l PEG 200; DNA up to 10:1 over compound
[7] = tested on: Hum57 (DNA, G4) GGGTTAGGGTTAGGGTTAGGGTTAGGGTTAGGGTTAGGGTTAGGGTTAGGGTTAGGG; assay: UV-vis absorption titration, Scatchard; conditions: 150 mM KCl; 10 mM Tris-HCl pH 7.4, 1 mM Na2EDTA, 400 ml/l PEG 200; 3 μM compound; n = 0.48
[8] = tested on: Hum63-M3 (DNA, G4) GGGTTAGGGTTAGGGTTAGGGTTGAGTGTGAGTGTAGGGTTAGGGTTAGGGTTAGGGTGTGAG; assay: UV-vis absorption titration, Scatchard; conditions: 150 mM KCl; 10 mM Tris-HCl pH 7.4, 1 mM Na2EDTA, 400 ml/l PEG 200; 3 μM compound; n = 0.50
[9] = tested on: ssDNA1 (DNA, single strand) GAGCTCTCGAAAGAGCTCCGATTA; assay: UV-vis absorption; conditions: 150 mM KCl; 10 mM Tris-HCl pH 7.4, 1 mM Na2EDTA, 400 ml/l PEG 200; 20 μM DNA
[10] = tested on: Oxy28 (DNA, G4) GGGGTTTTGGGGTTTTGGGGTTTGGGG; assay: UV-vis absorption; conditions: 150 mM KCl; 10 mM Tris-HCl pH 7.4, 1 mM Na2EDTA, 400 ml/l PEG 200; DNA up to 10:1 over compound
[11] = tested on: KRAS (DNA, G4) AGGGCGGTGGGAAGAGGGAAGAGGGGGAGG; assay: UV-vis absorption; conditions: 150 mM KCl; 10 mM Tris-HCl pH 7.4, 1 mM Na2EDTA, 400 ml/l PEG 200; DNA up to 10:1 over compound
[12] = tested on: Hum57-M1 (DNA, G4) GGGTTAGGGTTAGGGTTAGGGTTAGGGTTAGGGTTAGGGTTAGGGTGTGAGTGTGAG; assay: UV-vis absorption titration, Scatchard; conditions: 150 mM KCl; 10 mM Tris-HCl pH 7.4, 1 mM Na2EDTA, 400 ml/l PEG 200; 3 μM compound; n = 0.48
[13] = tested on: Hum51 (DNA, G4) GGGTTAGGGTTAGGGTTAGGGTTAGGGTTAGGGTTAGGGTTAGGGTTAGGG; assay: UV melting at 295 nm; conditions: 50 mM KCl; 10 mM Tris-HCl pH 7.4, 1 mM Na2EDTA, no PEG; 5 μM compound, 5 μM DNA; derived from two Tm
[14] = tested on: Hum57-M3 (DNA, G4) GGGTTAGGGTTAGGGTTAGGGTTGAGTGTGAGTGTAGGGTTAGGGTTAGGGTTAGGG; assay: UV-vis absorption titration, Scatchard; conditions: 150 mM KCl; 10 mM Tris-HCl pH 7.4, 1 mM Na2EDTA, 400 ml/l PEG 200; 3 μM compound; n = 0.50
[15] = tested on: Hum57-M2 (DNA, G4) GGGTTAGGGTTAGGGTTAGGGTTGAGTGTAGGGTTAGGGTTAGGGTTAGGGTGTGAG; assay: UV-vis absorption titration, Scatchard; conditions: 150 mM KCl; 10 mM Tris-HCl pH 7.4, 1 mM Na2EDTA, 400 ml/l PEG 200; 3 μM compound; n = 0.47
[16] = tested on: Hum51-M2 (DNA, G4) GGGTTAGGGTTAGGGTTAGGGTTGAGTGTAGGGTTAGGGTTAGGGTTAGGG; assay: UV-vis absorption titration, Scatchard; conditions: 150 mM KCl; 10 mM Tris-HCl pH 7.4, 1 mM Na2EDTA, 400 ml/l PEG 200; 3 μM compound; n = 0.46
[17] = tested on: Hum51 (DNA, G4) GGGTTAGGGTTAGGGTTAGGGTTAGGGTTAGGGTTAGGGTTAGGGTTAGGG; assay: UV-vis absorption titration, Scatchard; conditions: 150 mM KCl; 10 mM Tris-HCl pH 7.4, 1 mM Na2EDTA, 400 ml/l PEG 200; 3 μM compound; n = 0.50
[18] = tested on: C-MYC (DNA, G4) TGAGGGTGGGAGGGTGGGAA; assay: UV-vis absorption; conditions: 150 mM KCl; 10 mM Tris-HCl pH 7.4, 1 mM Na2EDTA, 400 ml/l PEG 200; DNA up to 10:1 over compound
[19] = tested on: Hum69 (DNA, G4) GGGTTAGGGTTAGGGTTAGGGTTAGGGTTAGGGTTAGGGTTAGGGTTAGGGTTAGGGTTAGGGTTAGGG; assay: UV-vis absorption titration, Scatchard; conditions: 150 mM KCl; 10 mM Tris-HCl pH 7.4, 1 mM Na2EDTA, 400 ml/l PEG 200; 3 μM compound; n = 0.52
[20] = tested on: Hum63-M2 (DNA, G4) GGGTTAGGGTTAGGGTTAGGGTTGAGTGTAGGGTTAGGGTTAGGGTTAGGGTGTGAGTGTGAG; assay: UV-vis absorption titration, Scatchard; conditions: 150 mM KCl; 10 mM Tris-HCl pH 7.4, 1 mM Na2EDTA, 400 ml/l PEG 200; 3 μM compound; n = 0.50
[21] = tested on: LD (DNA, duplex) GCGCAATTGCGC; assay: UV-vis absorption; conditions: 150 mM KCl; 10 mM Tris-HCl pH 7.4, 1 mM Na2EDTA, 400 ml/l PEG 200; 20 μM DNA
[22] = tested on: Hum57 (DNA, G4) GGGTTAGGGTTAGGGTTAGGGTTAGGGTTAGGGTTAGGGTTAGGGTTAGGGTTAGGG; assay: UV melting at 295 nm; conditions: 50 mM KCl; 10 mM Tris-HCl pH 7.4, 1 mM Na2EDTA, no PEG; 5 μM compound, 5 μM DNA; derived from two Tm
[23] = tested on: Hum45 (DNA, G4) GGGTTAGGGTTAGGGTTAGGGTTAGGGTTAGGGTTAGGGTTAGGG; assay: UV-vis absorption titration, Scatchard; conditions: 150 mM KCl; 10 mM Tris-HCl pH 7.4, 1 mM Na2EDTA, 400 ml/l PEG 200; 3 μM compound; n = 0.46
[24] = tested on: Hum51-M1 (DNA, G4) GGGTTAGGGTTAGGGTTAGGGTTAGGGTTAGGGTTAGGGTTAGGGTGTGAG; assay: UV-vis absorption titration, Scatchard; conditions: 150 mM KCl; 10 mM Tris-HCl pH 7.4, 1 mM Na2EDTA, 400 ml/l PEG 200; 3 μM compound; n = 0.45
[25] = tested on: ssDNA2 (DNA, single strand) TAGAGCACACCTGTCCGTG; assay: UV-vis absorption; conditions: 150 mM KCl; 10 mM Tris-HCl pH 7.4, 1 mM Na2EDTA, 400 ml/l PEG 200; 20 μM DNA
[26] = tested on: Hum21 (DNA, G4) GGGTTAGGGTTAGGGTTAGGG; assay: UV-vis absorption titration, Scatchard; conditions: 150 mM KCl; 10 mM Tris-HCl pH 7.4, 1 mM Na2EDTA, 400 ml/l PEG 200; 3 μM compound; Ka undetected
[27] = tested on: Hum63-M1 (DNA, G4) GGGTTAGGGTTAGGGTTAGGGTTAGGGTTAGGGTTAGGGTTAGGGTGTGAGTGTGAGTGTGAG; assay: UV-vis absorption titration, Scatchard; conditions: 150 mM KCl; 10 mM Tris-HCl pH 7.4, 1 mM Na2EDTA, 400 ml/l PEG 200; 3 μM compound; n = 0.46
[28] = tested on: GC (DNA, duplex) GCGCGCGCGCGC; assay: UV-vis absorption; conditions: 150 mM KCl; 10 mM Tris-HCl pH 7.4, 1 mM Na2EDTA, 400 ml/l PEG 200; 20 μM DNA
[29] = tested on: Hum63 (DNA, G4) GGGTTAGGGTTAGGGTTAGGGTTAGGGTTAGGGTTAGGGTTAGGGTTAGGGTTAGGGTTAGGG; assay: UV melting at 295 nm; conditions: 50 mM KCl; 10 mM Tris-HCl pH 7.4, 1 mM Na2EDTA, no PEG; 5 μM compound, 5 μM DNA; derived from two Tm

melting temperature shift (ΔTm) [1]: 0.4 °C
binding [2]: no
melting temperature shift (ΔTm) [3]: 6.6 °C
melting temperature shift (ΔTm) [4]: 9.1 °C
Ka [5]: 2.53e+06 M⁻¹
binding [6]: no
Ka [7]: 1.05e+06 M⁻¹
Ka [8]: 1.08e+06 M⁻¹
binding [9]: no
binding [10]: no
binding [11]: no
Ka [12]: 1.3e+06 M⁻¹
melting temperature shift (ΔT1/2) [13]: 8.0 °C
Ka [14]: 1.08e+06 M⁻¹
Ka [15]: 1.38e+06 M⁻¹
Ka [16]: 1.1e+06 M⁻¹
Ka [17]: 1.66e+06 M⁻¹
binding [18]: no
Ka [19]: 2.05e+06 M⁻¹
Ka [20]: 1.1e+06 M⁻¹
binding [21]: no
melting temperature shift (ΔTm) [22]: 9.2 °C
Ka [23]: 1.11e+06 M⁻¹
Ka [24]: 1.09e+06 M⁻¹
binding [25]: no
binding [26]: no
Ka [27]: 2.08e+06 M⁻¹
binding [28]: no
melting temperature shift (ΔTm) [29]: 8.9 °C
Structure (SMILES): C[N+]1(CCOc2cccc(-c3c4nc(c(-c5cccc(OCC[N+]6(C)CCCCC6)c5)c5ccc([nH]5)c(-c5cccc(OCC[N+]6(C)CCCCC6)c5)c5nc(c(-c6cccc(OCC[N+]7(C)CCCCC7)c6)c6ccc3[nH]6)C=C5)C=C4)c2)CCCCC1
